Data on 28 molecules can be found in US12617797B2, “Substituted pyrazolo [1,5-a]pyrimidines having multimodal activity against pain” (ESTEVE PHARMACEUTICALS, S.A., priority 2020, dated 2026).

Assay [1] deals with Human α2δ-1 subunit of Cav2.2 calcium channel (Homo sapiens, UniProt P54289). Description: Human α2δ-1 subunit of Cav2.2 calcium channel assay ([3H]-gabapentin binding). As to conditions: binding to the α2δ-1 subunit of voltage-gated calcium channels expressed as Ki; + also covers inhibition between 1% and 50%. In a few lines: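 Membranes enriched in human α2δ-1 incubated with 15 nM [3H]-gabapentin in 10 mM Hepes-KOH pH 7.4, 60 min at 27 °C; nonspecific binding defined with 10 μM pregabalin. Filtration and scintillation counting; % inhibition at 1 or 10 μM, or Ki from five concentrations.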
Chain of Human α2δ-1 subunit of Cav2.2 calcium channel (P54289 25-1103): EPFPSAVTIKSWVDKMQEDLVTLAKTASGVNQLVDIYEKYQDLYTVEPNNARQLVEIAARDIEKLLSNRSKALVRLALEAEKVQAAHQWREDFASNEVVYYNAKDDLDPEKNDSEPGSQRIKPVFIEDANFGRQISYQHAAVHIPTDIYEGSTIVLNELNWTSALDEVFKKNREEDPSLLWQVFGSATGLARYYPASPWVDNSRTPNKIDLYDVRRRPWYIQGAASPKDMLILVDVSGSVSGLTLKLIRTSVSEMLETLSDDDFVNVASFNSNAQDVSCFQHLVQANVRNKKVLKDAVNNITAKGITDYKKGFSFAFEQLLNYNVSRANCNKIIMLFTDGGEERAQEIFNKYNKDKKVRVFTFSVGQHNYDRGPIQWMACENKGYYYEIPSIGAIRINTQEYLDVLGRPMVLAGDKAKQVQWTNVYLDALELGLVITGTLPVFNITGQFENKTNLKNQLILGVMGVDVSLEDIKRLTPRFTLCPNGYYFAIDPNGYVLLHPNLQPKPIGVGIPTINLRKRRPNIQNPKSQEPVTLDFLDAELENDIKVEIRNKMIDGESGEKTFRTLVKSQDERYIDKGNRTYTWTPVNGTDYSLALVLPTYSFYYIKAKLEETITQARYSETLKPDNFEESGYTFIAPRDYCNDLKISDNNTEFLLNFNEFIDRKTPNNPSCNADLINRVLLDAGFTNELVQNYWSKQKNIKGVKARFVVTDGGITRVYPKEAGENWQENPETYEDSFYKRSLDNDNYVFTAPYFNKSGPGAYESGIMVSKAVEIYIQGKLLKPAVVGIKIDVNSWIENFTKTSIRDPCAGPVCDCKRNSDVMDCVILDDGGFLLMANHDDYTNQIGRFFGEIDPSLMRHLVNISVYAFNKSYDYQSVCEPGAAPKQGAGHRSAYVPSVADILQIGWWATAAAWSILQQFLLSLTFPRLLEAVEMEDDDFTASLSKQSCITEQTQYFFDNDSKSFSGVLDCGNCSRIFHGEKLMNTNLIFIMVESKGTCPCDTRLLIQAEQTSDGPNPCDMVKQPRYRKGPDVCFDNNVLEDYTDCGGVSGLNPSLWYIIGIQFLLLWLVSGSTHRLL

For another assay, the target named is T1, Human σ1 receptor (Homo sapiens, UniProt Q99720).
T1 construct: expressed in transfected cells; host or cells: HEK-293
T1 sequence (Q99720 whole entry): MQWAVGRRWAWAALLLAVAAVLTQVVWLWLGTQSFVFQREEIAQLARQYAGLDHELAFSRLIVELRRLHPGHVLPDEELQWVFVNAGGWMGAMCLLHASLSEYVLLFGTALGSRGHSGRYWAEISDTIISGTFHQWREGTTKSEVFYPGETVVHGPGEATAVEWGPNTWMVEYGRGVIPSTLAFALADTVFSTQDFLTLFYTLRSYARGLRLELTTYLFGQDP
Nature of the assay: Human σ1 receptor radioligand assay ([3H](+)-pentazocine binding, transfected HEK-293 membranes). As to conditions: binding to σ1 receptor expressed as Ki; + also covers inhibition between 1% and 50%; read-out: σ-1 binding. In a few lines: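 Membranes (7 μg) were incubated with 5 nM [3H](+)-pentazocine in 50 mM Tris-HCl pH 8 for 120 min at 37° C. Non-specific binding was defined with 10 μM haloperidol. Values are % inhibition at 1 or 10 μM or Ki from five concentrations, read by filtration and scintillation counting.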

SMILES strings stand for the structures.

Regarding `Cc1nn2c([C@H]3CCCN(Cc4ccc(Cl)cc4)C3)ccnc2c1CN[C@H](C)c1ccccc1` [Example 196, (R)—N-((7-((S)-1-(4-chlorobenzyl)piperidin-3-yl)-2-methylpyrazolo[1,5-a]pyrimidin-3-yl)methyl)-1-phenylethan-1-amine], the Ki was greater than 5000 nM in assay [1] and less than 500 nM on Human σ1 receptor.
As to `Cc1nn2c([C@@H]3CCCN(Cc4ccc(Cl)cc4)C3)ccnc2c1CN[C@@H](C)c1ccccc1` [Example 197, (S)—N-((7-((R)-1-(4-chlorobenzyl)piperidin-3-yl)-2-methylpyrazolo[1,5-a]pyrimidin-3-yl)methyl)-1-phenylethan-1-amine], the Ki in assay [1] is 500 to 5000 nM; at Human σ1 receptor, less than 500 nM.
Regarding `Cc1nn2c([C@H]3CCCN(Cc4ccc(Cl)cc4)C3)ccnc2c1CN[C@@H](C)c1ccccc1` [Example 198, (S)—N-((7-((S)-1-(4-chlorobenzyl)piperidin-3-yl)-2-methylpyrazolo[1,5-a]pyrimidin-3-yl)methyl)-1-phenylethan-1-amine], the Ki (in assay [1]; at Human σ1 receptor) was less than 500 nM each time.
As for `Cc1nn2c([C@H]3CCCN(Cc4ccc(Cl)cc4)C3)ccnc2c1CNCC1CCOCC1` [Example 199, (S)-1-(7-(1-(4-Chlorobenzyl)piperidin-3-yl)-2-methylpyrazolo[1,5-a]pyrimidin-3-yl)-N-((tetrahydro-2H-pyran-4-yl)methyl)methanamine], the Ki (in assay [1]; at Human σ1 receptor) was less than 500 nM throughout.
With `Cc1nn2c([C@@H]3CCCN(Cc4ccc(Cl)cc4)C3)ccnc2c1CNCC1CCOCC1` [Example 200, (R)-1-(7-(1-(4-chlorobenzyl)piperidin-3-yl)-2-methylpyrazolo[1,5-a]pyrimidin-3-yl)-N-((tetrahydro-2H-pyran-4-yl)methyl)methanamine], the Ki in assay [1] was greater than 5000 nM; on Human σ1 receptor it was less than 500 nM.
The like results for `Cc1nn2c([C@@H]3CCCN(Cc4ccc(Cl)cc4)C3)ccnc2c1CNC[C@H]1CCOC1` [Example 202, 1-(7-((R)-1-(4-chlorobenzyl)piperidin-3-yl)-2-methylpyrazolo[1,5-a]pyrimidin-3-yl)-N—(((R)-tetrahydrofuran-3-yl)methyl)methanamine] were, in that order, less than 500 nM and less than 500 nM.
As to `Cc1nn2c([C@H]3CCCN(Cc4ccc(Cl)cc4)C3)ccnc2c1CNC[C@@H]1CCOC1` [Example 203, 1-(7-((S)-1-(4-chlorobenzyl)piperidin-3-yl)-2-methylpyrazolo[1,5-a]pyrimidin-3-yl)-N—(((S)-tetrahydrofuran-3-yl)methyl)methanamine], the Ki in assay [1] is 500 to 5000 nM; on Human σ1 receptor, less than 500 nM.
Turning to `Cc1nn2c([C@H]3CCCN(Cc4ccccc4)C3)ccnc2c1CNCC1CCOCC1` [Example 204, (S)-1-(7-(1-Benzylpiperidin-3-yl)-2-methylpyrazolo[1,5-a]pyrimidin-3-yl)-N-((tetrahydro-2H-pyran-4-yl)methyl)methanamine], the Ki was 500 to 5000 nM in assay [1] and less than 500 nM at Human σ1 receptor.
With `Cc1nn2c([C@@H]3CCCN(Cc4ccccc4)C3)ccnc2c1CNCC1CCOCC1` [Example 205, (R)-1-(7-(1-benzylpiperidin-3-yl)-2-methylpyrazolo[1,5-a]pyrimidin-3-yl)-N-((tetrahydro-2H-pyran-4-yl)methyl)methanamine], the Ki is greater than 5000 nM in assay [1] and less than 500 nM on Human σ1 receptor.
The corresponding values for `Cc1nn2c([C@H]3CCCN(Cc4ccc(F)cc4)C3)ccnc2c1CNCC1CCOCC1` [Example 206, (S)-1-(7-(1-(4-Fluorobenzyl)piperidin-3-yl)-2-methylpyrazolo[1,5-a]pyrimidin-3-yl)-N-((tetrahydro-2H-pyran-4-yl)methyl)methanamine] are less than 500 nM and less than 500 nM.
`Cc1nn2c([C@@H]3CCCN(Cc4ccc(F)cc4)C3)ccnc2c1CNCC1CCOCC1` [Example 207, (R)-1-(7-(1-(4-fluorobenzyl)piperidin-3-yl)-2-methylpyrazolo[1,5-a]pyrimidin-3-yl)-N-((tetrahydro-2H-pyran-4-yl)methyl)methanamine]: the Ki in assay [1] was greater than 5000 nM; on Human σ1 receptor, less than 500 nM.
The like results for `Cc1nn2c([C@H]3CCCN(Cc4cccc(C#N)c4)C3)ccnc2c1CNCC1CCOCC1` [Example 208, (S)-3-((3-(2-Methyl-3-((((tetrahydro-2H-pyran-4-yl)methyl)amino)methyl)pyrazolo[1,5-a]pyrimidin-7-yl)piperidin-1-yl)methyl)benzonitrile] were, in that order, greater than 5000 nM and less than 500 nM.
On to `Cc1nn2c([C@@H]3CCCN(Cc4cccc(C#N)c4)C3)ccnc2c1CNCC1CCOCC1` [Example 209, (R)-3-((3-(2-methyl-3-((((tetrahydro-2H-pyran-4-yl)methyl)amino)methyl)pyrazolo[1,5-a]pyrimidin-7-yl)piperidin-1-yl)methyl)benzonitrile], for which the results for the Ki (in assay [1]; at Human σ1 receptor) were greater than 5000 nM and less than 500 nM, respectively.
For the molecule `Cc1nn2c([C@@H]3CCCN(Cc4ccc(Cl)cc4)C3)ccnc2c1CN(C)C` [Example 211, (R)-1-(7-(1-(4-chlorobenzyl)piperidin-3-yl)-2-methylpyrazolo[1,5-a]pyrimidin-3-yl)-N,N-dimethylmethanamine], the Ki was greater than 5000 nM in assay [1] and less than 500 nM on Human σ1 receptor.
Turning to `CNCc1c(C)nn2c([C@@H]3CCCN(Cc4ccc(Cl)cc4)C3)ccnc12` [Example 212, (R)-1-(7-(1-(4-Chlorobenzyl)piperidin-3-yl)-2-methylpyrazolo[1,5-a]pyrimidin-3-yl)-N-methylmethanamine], the Ki in assay [1] was greater than 5000 nM; on Human σ1 receptor, less than 500 nM.
The like results for `CNCc1c(C)nn2c([C@H]3CCCN(Cc4ccc(Cl)cc4)C3)ccnc12` [Example 213, (S)-1-(7-(1-(4-chlorobenzyl)piperidin-3-yl)-2-methylpyrazolo[1,5-a]pyrimidin-3-yl)-N-methylmethanamine] were, in that order, 500 to 5000 nM and less than 500 nM.
On to `Clc1nn2c([C@H]3CCCN(Cc4ccccc4)C3)ccnc2c1CNCC1CCOCC1` [Example 214], for which the Ki was 500 to 5000 nM in assay [1] and less than 500 nM on Human σ1 receptor.
On to `Clc1nn2c([C@@H]3CCCN(Cc4ccccc4)C3)ccnc2c1CNCC1CCOCC1` [Example 215], for which the figures for the Ki (in assay [1]; at Human σ1 receptor) were greater than 5000 nM and less than 500 nM, respectively.
Turning to `CC(=O)N1CCC(CNCc2c(Cl)nn3c([C@H]4CCCN(Cc5ccccc5)C4)ccnc23)CC1` [Example 216, (S)-1-(4-((((7-(1-Benzylpiperidin-3-yl)-2-chloropyrazolo[1,5-a]pyrimidin-3-yl)methyl)amino)methyl)piperidin-1-yl)ethan-1-one], the Ki (in assay [1]; at Human σ1 receptor) was less than 500 nM in each case.
As for `Cc1nn2c(C3CCCN(Cc4ccc(Cl)cc4)C3)ccnc2c1CNCC1CCN(C(N)=O)CC1` (centres unmarked) [Example 218, 4-((((7-(1-(4-Chlorobenzyl)piperidin-3-yl)-2-methylpyrazolo[1,5-a]pyrimidin-3-yl)methyl)amino)methyl)piperidine-1-carboxamide], the Ki in assay [1] was in the range of 500 to 5000 nM; at Human σ1 receptor, 500 to 1000 nM.
For the molecule `Cc1nn2c(C3CCCN(Cc4ccc(Cl)cc4)C3)ccnc2c1CN` (centres unmarked) [Example 219, (7-(1-(4-Chlorobenzyl)piperidin-3-yl)-2-methylpyrazolo[1,5-a]pyrimidin-3-yl)methanamine], the Ki in assay [1] fell in the range of 500 to 5000 nM; at Human σ1 receptor it was 500 to 1000 nM.
Regarding `Cc1nn2c(C3CCCN(Cc4ccccc4)C3)ccnc2c1CNCC1C[C@@H](C)O[C@@H](C)C1` (stereo partly drawn) [Example 220, 1-(7-(1-Benzylpiperidin-3-yl)-2-methylpyrazolo[1,5-a]pyrimidin-3-yl)-N-(((2R,6S)-2,6-dimethyltetrahydro-2H-pyran-4-yl)methyl)methanamine], the Ki in assay [1] lay in the range of 500 to 5000 nM; on Human σ1 receptor, 500 to 1000 nM.
As for `Cc1nn2c([C@@H]3CCCN(Cc4ccc(Cl)cc4)C3)ccnc2c1CNC[C@H]1CCOC(C)(C)C1` [Example 222], the Ki in assay [1] was greater than 5000 nM; at Human σ1 receptor, less than 500 nM.
On to `Cc1nn2c([C@H]3CCCN(Cc4ccc(Cl)cc4)C3)ccnc2c1CNC[C@@H]1CCOC(C)(C)C1` [Example 223], for which the values for the Ki (in assay [1]; at Human σ1 receptor) were greater than 5000 nM and less than 500 nM, respectively.
For `Cc1nn2c([C@@H]3CCCN(Cc4ccc(Cl)cc4)C3)ccnc2c1CN[C@@H](C)C1CCOCC1` [Example 225, (S)—N-((7-((R)-1-(4-chlorobenzyl)piperidin-3-yl)-2-methylpyrazolo[1,5-a]pyrimidin-3-yl)methyl)-1-(tetrahydro-2H-pyran-4-yl)ethan-1-amine], the Ki was greater than 5000 nM in assay [1] and less than 500 nM at Human σ1 receptor.
The corresponding values for `Cc1nn2c([C@H]3CCCN(Cc4ccc(Cl)cc4)C3)ccnc2c1CN[C@H](C)C1CCOCC1` [Example 226, (R)—N-((7-((S)-1-(4-chlorobenzyl)piperidin-3-yl)-2-methylpyrazolo[1,5-a]pyrimidin-3-yl)methyl)-1-(tetrahydro-2H-pyran-4-yl)ethan-1-amine] are 500 to 5000 nM and less than 500 nM.
In the case of `Cc1nn2c([C@@H]3CCCN(Cc4ccc(Cl)cc4)C3)ccnc2c1CN(C)CC1CC1` [Example 227, (R)-1-(7-(1-(4-Chlorobenzyl)piperidin-3-yl)-2-methylpyrazolo[1,5-a]pyrimidin-3-yl)-N-(cyclopropylmethyl)-N-methylmethanamine], the Ki in assay [1] is greater than 5000 nM; at Human σ1 receptor it was less than 500 nM.
On to `Cc1nn2c([C@H]3CCCN(Cc4ccc(Cl)cc4)C3)ccnc2c1CN(C)CC1CC1` [Example 228, (S)-1-(7-(1-(4-chlorobenzyl)piperidin-3-yl)-2-methylpyrazolo[1,5-a]pyrimidin-3-yl)-N-(cyclopropylmethyl)-N-methylmethanamine], for which the Ki (in assay [1]; at Human σ1 receptor) was less than 500 nM throughout.
